Consider 1 molecule from patent US10610517B2, “Compositions and methods for treating neoplastic diseases” (Celgene International II Sàrl, priority 2004, dated 2020).

In data set [1] the test system is MM.1S cells. Put plainly: MTT viability of MM.1S cells with or without rhIL-6 or rhIGF-I. Type of data set: cell-based, human. From the text: Adhesion of MM cells to BMSCs induces IL-6 and IGF-I secretion from BMSCs, which not only regulates the growth of MM cells, but also protects against chemotherapy. See Hardin, J., MacLeod, S., Grigorieva, I., Chang, R., Barlogie, B., Xiao, H. & Epstein, J. (1994) Blood 84, 3063-70 and Chauhan, D., Kharbanda, S., Ogata, A., Urashima, M., Teoh, G., Robertson, M., Kufe, D. W. & Anderson, K. C. […] Thus, whether rhIL-6 or rhIGF-I inhibits apoptosis in MM cells induced by the compound of Formula (II) (X=Cl) was evaluated. […] At 24 h cells were harvested and viability analyzed by MTT assays. […] Median viability was 51±2.1% after treatment with Dex and 92±5.5% for Dex+rhIL-6 (P=0.05, as determined by one-sided Wilcoxon rank-sum test). Results are mean±SD of three independent experiments. […] In contrast and as in other studies, both IL-6 and IGF-I block Dex-induced decreased MM.1S cell viability. See Chauhan, D., Hideshima, T. & Anderson, K. C. (2003) Int J Hematol 78, 114-20 and Mitsiades, C. S., Mitsiades, N., Poulaki, V., Schlossman, R., Akiyama, M., Chauhan, D., Hideshima, T., Treon, S. P., Munshi, N. C., Richardson, P. G. & Anderson, K. C.

Data set [2] relates to normal CCD-27sk fibroblasts. Put plainly: cells. Type of data set: cell-based, human. The text has this:
Whether the compound of formula (II) or Bortezomib alters proteasome activity in normal lymphocytes and skin fibroblasts was also examined.

Data set [3] deals with Bcl2-transfected MM.1S cells. Kind of data set: MTT viability of Bcl2-transfected MM.1S cells. As for the experimental part: Bcl2 confers resistance to conventional therapies in cancer cells, including MM. […] Bcl2 can modestly attenuate Bortezomib-induced apoptosis. Thus, whether ectopic expression of Bcl2 in MM.1S cells affects responsiveness to the compound of formula (II) (X=Cl) was evaluated. MM.1S cells were stably transfected with Bcl2 construct and analyzed for alterations in cell viability using an MTT assay. […] Results are mean±SD of three independent experiments.
During apoptosis Bax neutralizes the antiapoptotic function of Bcl-2, thereby facilitating the cyto-c release and caspase-9 activation. Bcl-2 also confers drug resistance in cancer cells, including MM, and provides partial protection against Bortezomib-induced killing. Therefore, whether ectopic expression of Bcl-2 in MM.1S cells affects the ability of the compound of formula (II) or Bortezomib to trigger cytotoxicity and postmitochondrial apoptotic signaling in MM cells was evaluated.

The test system of data set [4] is patient MM-derived BMSCs. Put plainly: DNA fragmentation apoptosis assay on bone marrow stromal cells. The format is cell-based, human. The settings on record: 20 nM, 24 h, BMSCs Patient #1-5; FIG. 6.

On to `CC12OC(=O)C1(C(O)C1C=CCCC1)NC(=O)C2CCCl` (centres unmarked) [compound of formula (II) (X=Cl)], for which the median cell viability is 51.2±3.2% in data set [1] (agent + rhIL-6 (10 ng/ml), 24 h (compound 7 nM; Dex 0.5 μM)); 47±2.3% in data set [1] (agent alone, 24 h (compound 7 nM; Dex 0.5 μM)); 50.3%±2.0 in data set [1] (compound 7 nM + rhIGF-I (50 ng/ml), 24 h). Moreover, in data set [2], the midpoint of inhibition, the IC50, lay at 0.317 µM. Also, in data set [3] (Bcl-2- versus vector-transfected, FIG. 14A), the “increased survival of Bcl-2 transfectants” value came out at 11%. The viability in data set [3] (Bcl-2-transfected cells, FIG. 14A) is recorded as 50%±2.6; in data set [3] (vector-transfected cells, FIG. 14A), 39%±1.5. Moreover, in data set [3] (FIG. 9), the “less cell death in Bcl2-transfected cells compared to empty vector-transfected MM.1S cells” value amounted to 15±1.1%. Besides, the “effect of Bcl-2 overexpression on induced caspase-9 cleavage” value in data set [3] (FIG. 14B) was “minimally affected”. Further, the “cell viability of Bcl2-transfected MM.1S cells” value in data set [3] (dose-dependent, FIG. 9) was “significantly decreases cell viability”. Besides, in data set [4], the “apoptosis by DNA fragmentation assay” value is listed as “does not induce apoptosis”.
